Measurements from US11040028B2, “Penicinotam derivative, preparation method and use thereof” (OCEAN UNIVERSITY OF CHINA, priority 2017, dated 2021).

Legend:
Type in all cases: cell-based
NF-κB = assay: Immunological activity test: inhibition of NF-κB activity; conditions: initial concentration of 30 μM; a/b isomers given as first/second symbol; read-out: IC50 (μM), inhibitory activity against NF-κB
Procedure, shortened: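 NF-κB inhibition was tested at an initial 30 μM compound concentration, with parthenolide as positive control, and IC50 values were determined from follow-up analysis.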

[1] = tested on: human embryonic lung fibroblast IMR-90; assay: Anti-fibrosis activity test: inhibition of proliferation of human embryonic lung fibroblast IMR-90 (CCK-8)
Procedure, shortened: (§1)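 Exponentially growing cells, 2×10^4 cells/mL, attached 24 h. Dosed 48 h across concentrations (n=3). CCK-8 2 h → A450; IR vs blank; IC50.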

[2] = tested on: mouse macrophages (RAW264.7); assay: Lipopolysaccharide-induced NO secretion in macrophages (Griess); conditions: Mus musculus, RAW264.7, 24 h, RAW264.7, LPS 1 μg/ml, a/b isomers given as first/second symbol, read-out: IC50 (μM), inhibition of lipopolysaccharide-induced NO secretion in macrophages
Procedure, shortened: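 RAW264.7 cells in DMEM with 10% FBS were treated with test compounds at several concentrations, then stimulated with LPS (1 μg/ml) for 24 hours. Nitrite in the supernatant was measured by Griess reaction at 548 nm, and percent inhibition was calculated against blank-medium controls.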

[3] = tested on: cardiac fibroblast RAT-iCell-C002; assay: Anti-fibrosis activity test: inhibition of proliferation of cardiac fibroblast RAT-iCell-C002 (CCK-8); conditions: Cardiac fibroblast, 48 h
Procedure, shortened: as §1

[4] = tested on: human dermal fibroblasts CCC-ESF-1; assay: Anti-fibrosis activity test: inhibition of proliferation of human dermal fibroblasts CCC-ESF-1 (CCK-8); conditions: Fibroblast
Procedure, shortened: as §1

BHK-21 cells = assay: Anti-fibrosis activity test: inhibition of BHK-21 cell proliferation (CCK-8); conditions: Mesocricetus auratus, BHK-21, 48 h
Procedure, shortened: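 Proliferation inhibition was read as CCK-8 absorbance at 450 nm (2-hour development) relative to untreated blank, with IC50 fitted from the curve. Before that, adhered cells (2×10^4 cells/mL, 24 hours) had 48 hours' treatment at several concentrations, in triplicate, at 37° C/5% CO2; pirfenidone was the reference.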

[5] = tested on: human lung fibroblasts HFL1; assay: Anti-fibrosis activity test: inhibition of proliferation of human lung fibroblasts HFL1 (CCK-8); conditions: Homo sapiens, HFL1, 48 h
Procedure, shortened: as §1

[6] = tested on: human fibrosarcoma cells HT-1080; assay: Anti-fibrosis activity test: inhibition of proliferation of human fibrosarcoma cells HT-1080 (CCK-8); conditions: Homo sapiens, HT-1080, 48 h
Procedure, shortened: as §1

[7] = tested on: human hepatic stellate cells LX-2; assay: Anti-fibrosis activity test: inhibition of proliferation of human hepatic stellate cells LX-2 (CCK-8); conditions: Homo sapiens, 48 h
Procedure, shortened: as §1

[8] = human embryonic lung fibroblast IMR-90, CCK-8, 48 hours
[9] = cardiac fibroblast RAT-iCell-C002, CCK-8, 48 hours
[10] = human dermal fibroblasts CCC-ESF-1, CCK-8, 48 hours
[11] = CCK-8, 48 hours after administration
[12] = human lung fibroblasts HFL1, CCK-8, 48 hours
[13] = human fibrosarcoma cells HT-1080, CCK-8, 48 hours
[14] = human hepatic stellate cells LX-2, CCK-8, 48 hours
[15] = Homo sapiens, IMR-90 cells, 48 h, CCK-8
[16] = Homo sapiens, CCC-ESF-1 cells, 48 h, CCK-8

Row | IC50 (NF-κB) | IC50 [2] | IC50 [6, 13] | IC50 ([6]; HT-1080 cells, 48 h, CCK-8) | SMILES | IC50 [1, 8] | IC50 [3, 9] | IC50 [4, 10] | IC50 (BHK-21 cells; [11]) | IC50 [5, 12] | IC50 [7, 14] | IC50 [1, 15] | IC50 ([3]; RAT-iCell-C002 cells, CCK-8) | IC50 [4, 16] | IC50 (BHK-21 cells; 48 h, CCK-8) | IC50 ([5]; HFL1 cells, 48 h, CCK-8) | IC50 ([7]; LX-2, 48 h, LX-2 cells, CCK-8)
1 | 1 to 10 µM | 1 to 10 µM | 0.05 to 5 mM |  | CC(C)=CCOc1c2c(nc3ccc(F)cc13)-c1cccn1C2=O [Compound 112b, 7-fluoro-9-((3-methylbut-2-en-1-yl)oxy)-10H-pyrrolizino[1,2-b]quinolin-10-one] | 0.05 to 5 mM | 0.05 to 5 mM | 0.05 to 5 mM | 0.05 to 5 mM | 0.05 to 5 mM | 0.05 to 5 mM |  |  |  |  |  | 
2 | 10 to 50 µM | 1 to 10 µM | 0.05 to 5 mM |  | O=C1c2c(n(Cc3ccc(Cl)cc3)c3cccc(Cl)c3c2=O)-c2cccn21 [Compound 477a, 8-Chloro-4-(4-chlorobenzyl)-9H-pyrrolizino[1,2-b]quinoline-9,10(4H)-dione] | 0.05 to 5 mM | 0.05 to 5 mM | 0.05 to 5 mM | 0.05 to 5 mM | 0.05 to 5 mM | 0.05 to 5 mM |  |  |  |  |  | 
3 | 0.001 to 0.1 µM | 1 to 10 µM | 0.05 to 5 mM |  | CN(C)CCCn1c2c(c(=O)c3ccccc31)C(=O)n1cccc1-2 [Compound 658a, 4-(3-(Dimethylamino)propyl)-9H-pyrrolizino[1,2-b]quinoline-9,10(4H)-dione] | 0.05 to 5 mM | 0.05 to 5 mM | 0.05 to 5 mM | 0.05 to 5 mM | 0.05 to 5 mM | 0.05 to 5 mM |  |  |  |  |  | 
4 | 1 to 10 µM | 10 to 50 µM | 0.05 to 5 mM |  | O=C1c2c(nc3ccccc3c2OCc2cc(C(F)(F)F)ccc2Cl)-c2cccn21 [Compound 611b, 9-((2-chloro-5-(trifluoromethyl)benzyl)oxy)-10H-pyrrolizino[1,2-b]quinolin-10-one] | 0.05 to 5 mM | 0.05 to 5 mM | 0.05 to 5 mM | 0.05 to 5 mM | 0.05 to 5 mM | 0.05 to 5 mM |  |  |  |  |  | 
5 | 1 to 10 µM | 1 to 10 µM | 0.05 to 5 mM |  | O=C1c2c(nc3cccc(C(F)(F)F)c3c2O)-c2cccn21 [Compound 479b, 9-hydroxy-8-(trifluoromethyl)-10H-pyrrolizino[1,2-b]quinolin-10-one] | 0.05 to 5 mM | 0.05 to 5 mM | 0.05 to 5 mM | 0.05 to 5 mM | 0.05 to 5 mM | 0.05 to 5 mM |  |  |  |  |  | 
6 | 0.1 to 1 µM | 1 to 10 µM |  | 0.05 to 5 mM | Cc1cccc2nc3c(c(O)c12)-c1cccn1C3=O [Compound 776b, 11-hydroxy-10-methyl-5H-pyrrolizino[2,1-b]quinolin-5-one] |  |  |  |  |  |  | 0.05 to 5 mM | 0.05 to 5 mM | 0.05 to 5 mM | 0.05 to 5 mM | 0.05 to 5 mM | 0.05 to 5 mM
7 | 1 to 10 µM | 1 to 10 µM | 0.05 to 5 mM |  | N#Cc1ccc2c(=O)c3c([nH]c2c1)-c1cccn1C3=O [Compound 512a, 9,10-Dioxo-4,10-dihydro-9H-pyrrolizino[1,2-b]quinoline-6-carbonitrile] | 0.05 to 5 mM | 0.05 to 5 mM | 0.05 to 5 mM | 0.05 to 5 mM | 0.05 to 5 mM | < 0.05 mM |  |  |  |  |  | 
8 | 1 to 10 µM | 10 to 50 µM | < 0.05 mM |  | O=C1c2c(n(Cc3c(Cl)cccc3Cl)c3ccccc3c2=O)-c2cccn21 [Compound 614a, 4-(2,6-Dichlorobenzyl)-9H-pyrrolizino[1,2-b]quinoline-9,10(4H)-dione] | 0.05 to 5 mM | 0.05 to 5 mM | 0.05 to 5 mM | 0.05 to 5 mM | 0.05 to 5 mM | 0.05 to 5 mM |  |  |  |  |  | 
9 | 1 to 10 µM | 0.1 to 1 µM | 0.05 to 5 mM |  | O=C(Cn1c2c(c(=O)c3ccccc31)C(=O)n1cccc1-2)c1ccc(Cl)cc1 [Compound 90a, 4-(2-(4-Chlorophenyl)-2-oxoethyl)-9H-pyrrolizino[1,2-b]quinoline-9,10(4H)-dione] | 0.05 to 5 mM | 0.05 to 5 mM | 0.05 to 5 mM | 0.05 to 5 mM | 0.05 to 5 mM | < 0.05 mM |  |  |  |  |  | 
10 | 1 to 10 µM | 1 to 10 µM | 0.05 to 5 mM |  | O=C1c2c([nH]c3ccc(Br)cc3c2=O)-c2cccn21 [Compound 246a, 7-Bromo-9H-pyrrolizino[1,2-b]quinoline-9,10(4H)-dione] | 0.05 to 5 mM | 0.05 to 5 mM | 0.05 to 5 mM | 5 to 20 mM | 0.05 to 5 mM | 0.05 to 5 mM |  |  |  |  |  | 
11 | 0.1 to 1 µM | 1 to 10 µM |  | 0.05 to 5 mM | Cc1cc(C)c2c(=O)c3c([nH]c2c1)-c1cccn1C3=O [Compound 768a, 6,8-Dimethyl-9H-pyrrolizino[1,2-b]quinoline-9,10(4H)-dione] |  |  |  |  |  |  | 0.05 to 5 mM | 0.05 to 5 mM | 0.05 to 5 mM | 0.05 to 5 mM | 0.05 to 5 mM | 0.05 to 5 mM
12 | 1 to 10 µM | 0.1 to 1 µM | 0.05 to 5 mM |  | C#CCn1c2c(c(=O)c3ccccc31)C(=O)n1cccc1-2 [Compound 7a, 4-(Prop-2-yn-1-yl)-9H-pyrrolizino[1,2-b]quinoline-9,10(4H)-dione] | 0.05 to 5 mM | 0.05 to 5 mM | < 0.05 mM | < 0.05 mM | 0.05 to 5 mM | 0.05 to 5 mM |  |  |  |  |  | 
13 | 10 to 50 µM | 1 to 10 µM | 0.05 to 5 mM |  | CC(C)=CCn1c2c(c(=O)c3cc(F)ccc31)C(=O)n1cccc1-2 [Compound 112a, 7-Fluoro-4-(3-methylbut-2-en-1-yl)-9H-pyrrolizino[1,2-b]quinoline-9,10(4H)-dione] | 0.05 to 5 mM | 0.05 to 5 mM | 0.05 to 5 mM | 5 to 20 mM | 0.05 to 5 mM | 0.05 to 5 mM |  |  |  |  |  | 
14 | 10 to 50 µM | 1 to 10 µM | 0.05 to 5 mM |  | O=C1c2c(nc3cc(F)ccc3c2O)-c2cccn21 [Compound 488b, 6-fluoro-9-hydroxy-10H-pyrrolizino[1,2-b]quinolin-10-one] | 0.05 to 5 mM | 0.05 to 5 mM | 0.05 to 5 mM | 0.05 to 5 mM | 0.05 to 5 mM | 0.05 to 5 mM |  |  |  |  |  | 
15 | 1 to 10 µM | 1 to 10 µM | 0.05 to 5 mM |  | O=C1c2c([nH]c3ccc(OC(F)(F)F)cc3c2=O)-c2cccn21 [Compound 306a, 7-(Trifluoromethoxy)-9H-pyrrolizino[1,2-b]quinoline-9,10(4H)-dione] | 0.05 to 5 mM | 0.05 to 5 mM | 0.05 to 5 mM | 0.05 to 5 mM | 0.05 to 5 mM | 0.05 to 5 mM |  |  |  |  |  | 
16 | 1 to 10 µM | 10 to 50 µM | 0.05 to 5 mM |  | N#Cc1ccccc1-c1ccc(Cn2c3c(c(=O)c4ccccc42)C(=O)n2cccc2-3)cc1 [Compound 648a, 4′-((9,10-Dioxo-9H-pyrrolizino[1,2-b]quinolin-4(10H)-yl)methyl)-[1,1′-biphenyl]-2-carbonitrile] | 0.05 to 5 mM | 0.05 to 5 mM | 0.05 to 5 mM | 0.05 to 5 mM | 0.05 to 5 mM | 0.05 to 5 mM |  |  |  |  |  | 
17 | 1 to 10 µM | 1 to 10 µM |  | 0.05 to 5 mM | Cc1cccc2c(O)c3c(nc12)-c1cccn1C3=O [Compound 732b, 9-hydroxy-5-methyl-10H-pyrrolizino[1,2-b]quinolin-10-one] |  |  |  |  |  |  | 0.05 to 5 mM | 0.05 to 5 mM | 0.05 to 5 mM | 0.05 to 5 mM | 0.05 to 5 mM | 0.05 to 5 mM
18 | 0.1 to 1 µM | 0.1 to 1 µM | 0.05 to 5 mM |  | O=C1c2c(n(Cc3ccccc3Cl)c3ccccc3c2=O)-c2cccn21 [Compound 600a, 4-(2-Chlorobenzyl)-9H-pyrrolizino[1,2-b]quinoline-9,10(4H)-dione] | 0.05 to 5 mM | 0.05 to 5 mM | 0.05 to 5 mM | 0.05 to 5 mM | 0.05 to 5 mM | 0.05 to 5 mM |  |  |  |  |  | 
19 | 1 to 10 µM | 0.1 to 1 µM | 0.05 to 5 mM |  | O=C1c2c(n(CCCN3CCOCC3)c3ccccc3c2=O)-c2cccn21 [Compound 663a, 4-(3-Morpholinopropyl)-9H-pyrrolizino[1,2-b]quinoline-9,10(4H)-dione] | 0.05 to 5 mM | 0.05 to 5 mM | 0.05 to 5 mM | < 0.05 mM | 0.05 to 5 mM | 0.05 to 5 mM |  |  |  |  |  | 
